Measured values reported in US11064940B2, “Methods for detecting and treating pain using brain activity” (Rhode Island Hospital, priority 2016, dated 2021).
Like-named read-outs stand apart in the source and are kept apart here.

Key:
male Sprague-Dawley rats [1] = experiment: Thermal hyperalgesia, paw withdrawal latency (PWL) to radiant heat; assay type: in vivo, rat
male Sprague-Dawley rats [2] = experiment: Cortical EEG coherence (3-30 Hz) between S1 and PFC electrodes; assay type: in vivo, rat
[3] = test system: transgenic mice co-expressing VGAT with Channelrhodopsin-2; experiment: SI theta power (LFP) after intradermal capsaicin in VGAT-ChR2 mice; assay type: in vivo, mouse; conditions: 15-20 minutes after intradermal injection of capsaicin in the hindpaw, n=5 mice
Excerpt: Thalamic bursts are triggered predominantly by GABAergic drive from the reticular thalamic nucleus (TRN), a thin layer overlaying the thalamus that receives strong input from limbic cortical areas. To selectively induce thalamic bursts, TRNs were optically stimulated in awake, unrestrained transgenic mice co-expressing the vesicular GABA transporter (VGAT) with Channelrhodopsin-2 (ChR2). In these mice, ChR2 expression in the thalamus is restricted to the TRN. Age-matched wild-type (C57 Bl\6J) non-ChR2 expressing mice were also used to control for non-specific optical stimulation effects. The naïve state refers to normal conditions prior to induction of the pain models. A custom-made multi-channel system was used to record extracellularly from putative single-units in ventral posterolateral (VPL) thalamus and local field potential (LFP) in the primary somatosensory cortex (S1) hindlimb area (FIGS. 9A-9B). For a description of the FlexDrive system assembly see www.open-ephys.org/[…]. […] FlexDrives were fixed to the skull using C&B-METABOND® Quick! Adhesive (Parkell). After 3 days postoperatively, tetrodes were lowered incrementally ( 500 μm over 5-7 days) until auditory confirmation of typical neuronal responses as expected in VPL and SI (e.g., increased multiunit firing) evoked by light brushing of the left hindpaw. Tetrode positions were also corroborated by stereotaxic coordinates. […]

VPL neurons = experiment: Spontaneous burst firing of VPL thalamic neurons after capsaicin; assay type: in vivo, mouse; conditions: after capsaicin injection, n=17 units, 5 mice
Excerpt: A custom-made multi-channel system was used to record extracellularly from putative single-units in ventral posterolateral (VPL) thalamus and local field potential (LFP) in the primary somatosensory cortex (S1) hindlimb area (FIGS. 9A-9B). For a description of the FlexDrive system assembly see www.open-ephys.org/[…]. […] FlexDrives were fixed to the skull using C&B-METABOND® Quick! Adhesive (Parkell). After 3 days postoperatively, tetrodes were lowered incrementally ( 500 μm over 5-7 days) until auditory confirmation of typical neuronal responses as expected in VPL and SI (e.g., increased multiunit firing) evoked by light brushing of the left hindpaw. Tetrode positions were also corroborated by stereotaxic coordinates. […] Chronic implants were stable over several weeks, allowing longitudinal analysis of neuronal activity with behavioral testing of mechanical sensitivity. […] Sorted spikes were then screened visually and inspected for false-positive or overlapping unitary assignments. Only one electrode per tetrode was used for spike sorting to minimize redundant assignments from the same unit. […] Moreover, isolation of putative unitary spikes also met the criterion of inter-spike interval (ISI)>2 ms (refractory period). […]

male Sprague-Dawley rats [4] = test system: male Sprague-Dawley rats
[5] = test system: transgenic mice co-expressing VGAT with Channelrhodopsin-2; experiment: Mechanical paw withdrawal threshold to von Frey filaments after capsaicin; conditions: within 15-20 minutes after capsaicin injection, n=7 mice
Description: For acute and chronic pain models, capsaicin (0.1%, 10 μl, intradermal) was injected into the plantar aspect of the left hindpaw under sedation (1.5% isoflurane <2 min) to prevent stress due to restraining the hindpaw.
Mechanical sensitivity of the hindpaw was assessed by measuring the threshold of withdrawal in response to the application of calibrated von Frey filaments of different bending forces to the plantar aspect of the hindpaw according to the ‘up-down’ method, whereby filaments of different bending forces were pressed against the paw until buckling for a maximum of 3 seconds or a withdrawal reflex.

[6] = 30 min after capsaicin, n=8 rats
[7] = rats with capsaicin, ibuprofen 30 mg/kg i.p.
[8] = rats with capsaicin, ibuprofen 30 mg/kg i.p. concomitantly with capsaicin, EEG 30 min after
[9] = rats with CCI, d14, 30 min after i.p. pregabalin
[10] = rats with CFA, d2, before / 30 min after i.p. pregabalin

## COc1cc(CNC(=O)CCCC/C=C/C(C)C)ccc1O [capsaicin]
Male Sprague-Dawley rats [1]; [6]
  paw withdrawal latency (PWL): 6.00 ± 0.24 s
Male Sprague-Dawley rats [1]; 24 hour after capsaicin
  paw withdrawal latency (PWL): 9.15 ± 0.26 s
Male Sprague-Dawley rats [1]; [7]
  PWL (FIG. 4B): 64±3
Male Sprague-Dawley rats [2]; rats with capsaicin or CFA
  cS1-iS1 coherence: did not significantly effect
  iS1-PFC coherence: did not significantly effect
Male Sprague-Dawley rats [2]; rats with capsaicin, n=7 rats
  coherence between cS1 and PFC (mean 3-30 Hz coherence): 0.61±0.05
[3]
  SI power in the theta band at 3.8-6.2 Hz: 8.15×10^−2±0.13×10^−2 mV^2
VPL neurons
  rate of spontaneous burst firing in VPL neurons: 0.64±0.11
Male Sprague-Dawley rats [4]; [6]
  PFC EEG mean power between 3 Hz to 30 Hz: 0.67±0.06 mV^2×10^−5
  cS1 EEG mean power between 3 Hz to 30 Hz: 1.05±0.11 mV^2×10^−5
  iS1 EEG mean power between 3 Hz to 30 Hz: 1.05±0.8 mV^2×10^−5
Male Sprague-Dawley rats [4]; 24 hours after capsaicin
  PFC EEG mean power between 3 Hz to 30 Hz: 0.65±0.07 mV^2×10^−5
  cS1 EEG mean power between 3 Hz to 30 Hz: 0.89±0.12 mV^2×10^−5
  iS1 EEG mean power between 3 Hz to 30 Hz: 0.90±0.18 mV^2×10^−5
Male Sprague-Dawley rats [4]; [8]
  PFC EEG mean power: 123±16
  cS1 EEG mean power (FIG. 4A): 128±17
  iS1 EEG mean power: 124±14
[5]
  paw withdrawal threshold (von Frey): 1.00 ± 0.37 g

## CC(C)C[C@H](CN)CC(=O)O [pregabalin]
Male Sprague-Dawley rats [1]; rats with CCI, after pregabalin
  PWL (FIG. 4B): 119±5
Male Sprague-Dawley rats [1]; rats with CFA, before / after pregabalin
  PWL (FIG. 4B): 132±17
Male Sprague-Dawley rats [2]; rats with CCI d14, after pregabalin, n=5 rats
  coherence between cS1 and PFC (mean 3-30 Hz coherence): 0.61±0.03
Male Sprague-Dawley rats [4]; rat, in vivo
  adverse EEG signs (diffuse or paroxysmal slow activity associated with drowsiness): did not manifest adverse EEG signs
Male Sprague-Dawley rats [4]; [9]
  PFC EEG mean power: 133±14
  cS1 EEG mean power (FIG. 4A): 87±12
  iS1 EEG mean power: 151±20
Male Sprague-Dawley rats [4]; [10]
  PFC EEG mean power: 138±20
  cS1 EEG mean power (FIG. 4A): 209±35
  iS1 EEG mean power: 133±9

## CC(C)Cc1ccc(C(C)C(=O)O)cc1 (stereo not shown) [ibuprofen]
Male Sprague-Dawley rats [1]; [7]
  PWL (FIG. 4B): 114±10
Male Sprague-Dawley rats [4]; [8]
  PFC EEG mean power: 117±18
  iS1 EEG mean power: 143±35

## Cc1cccc(C)c1OCC(C)N (stereo not shown) [mexiletine]
Male Sprague-Dawley rats [1]; rats with CCI, after mexiletine 10 mg/kg i.p.
  PWL (FIG. 4B): 119±17
Male Sprague-Dawley rats [2]; rats with CCI d16, after mexiletine, n=5 rats
  coherence between cS1 and PFC (mean 3-30 Hz coherence): 0.50±0.10
Male Sprague-Dawley rats [4]; rat, in vivo
  PFC EEG mean power: 113±6
  adverse EEG signs (diffuse or paroxysmal slow activity associated with drowsiness): did not manifest adverse EEG signs
  cS1 EEG mean power (FIG. 4A): 134±18
  iS1 EEG mean power: 13926
